# Assay results as given in US20240197756A1, “METHODS OF TREATMENT WITH NEUROACTIVE STEROIDS” (priority 2021, published 2024).
# Key:
# GABAA receptors = experiment: Pre-clinical qEEG beta power and animal models of anxiety and depression; assay type: in vivo; details: pre-clinical studies
# [1] = Safety and tolerability in the multiple escalating dose study in healthy subjects; assay type: in vivo, human
# Method: Adverse events (AEs) were monitored throughout the duration of the study.
# To monitor for possible AEs, vital signs, hematology and clinical chemistry laboratory parameters, ECG readings, neurological examination findings, and EEG parameters and abnormal findings were recorded at each visit.
# [2] = Cohorts 1-3, 15-60 mg QD for 14 days
compound,measurement,setting,value
"COC[C@@]1(O)CC[C@@]2(C)[C@@H](CC[C@@H]3[C@@H]2CC[C@]2(C)[C@@H](C(=O)Cn4ccnc4)CC[C@@H]32)C1 [Compound 1, 3α-Hydroxy-3β-methoxymethyl-21-(1′-imidazolyl)-5α-pregnan-20-one]",increase in beta power associated with robust activity in animal models of anxiety and depression,GABAA receptors,1.6 fold
same,Serious Adverse Events,[1]; [2],no Serious Adverse Events
same,"vital sign, ECG, or lab abnormalities",[1]; [2],"no clinically relevant vital sign, ECG, or lab abnormalities"
same,maximum tolerated dose and serious adverse events,"[1]; MAD study, after a dose of 60 mg, beta power increase up to 2.8-fold",without achieving a maximum tolerated dose (MTD) or demonstrating any serious adverse events (SAEs)
